Where two headings read alike, the source gives them in different places.
Tests used:
NRAS Q61R = NRAS Q61R (Homo sapiens, UniProt P01111+P62937, Q61R); assay: Disruption of BRAF RBD interaction with Ras (FRET / MOA assay, with Cyclophilin A); format: biochemical
Method in brief: (§1)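 TR-FRET in 25 mM HEPES pH 7.3, 100 mM NaCl, 5 mM MgCl2, 0.1% BSA: 25 μM Cyclophilin A, 12.5 nM His6-Ras-GMPPNP, 50 nM GST-BRAF RBD with compound (10-point 3-fold series from 30 μM), 3 h at 25° C. Anti-His Eu/anti-GST APC added, 1.5 h more; IC50 from decreased FRET ratio versus DMSO.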

NRAS WT = NRAS WT (Homo sapiens, UniProt P01111+P62937); assay: as above; format: biochemical
NRAS WT, sequence (P01111 whole entry): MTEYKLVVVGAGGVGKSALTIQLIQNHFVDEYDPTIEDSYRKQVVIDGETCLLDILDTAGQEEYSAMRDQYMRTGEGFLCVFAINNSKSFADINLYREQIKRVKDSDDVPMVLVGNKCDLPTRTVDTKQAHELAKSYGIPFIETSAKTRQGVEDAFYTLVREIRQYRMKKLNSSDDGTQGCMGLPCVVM
NRAS WT, sequence (P62937 whole entry): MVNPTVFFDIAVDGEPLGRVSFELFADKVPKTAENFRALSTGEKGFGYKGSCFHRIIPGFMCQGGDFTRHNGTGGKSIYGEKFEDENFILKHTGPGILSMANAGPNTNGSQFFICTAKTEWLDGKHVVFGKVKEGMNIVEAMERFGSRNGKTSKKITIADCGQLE
Method in brief: as §1

NRAS Q61K = NRAS Q61K (Homo sapiens, UniProt P01111+P62937, Q61K); assay: as above; format: biochemical
NRAS Q61K, sequence (P01111 whole entry Q61K): as the sequence (P01111 whole entry) above, with Q61K counted along it
NRAS Q61K, sequence (P62937 whole entry): as the sequence (P62937 whole entry) above
Method in brief: as §1

KRAS Q61H = KRAS Q61H (Homo sapiens, UniProt P01116+P62937, Q61H); assay: as above; format: biochemical
KRAS Q61H, sequence (P01116 1-169 isoform P01116-2 Q61H limits assumed): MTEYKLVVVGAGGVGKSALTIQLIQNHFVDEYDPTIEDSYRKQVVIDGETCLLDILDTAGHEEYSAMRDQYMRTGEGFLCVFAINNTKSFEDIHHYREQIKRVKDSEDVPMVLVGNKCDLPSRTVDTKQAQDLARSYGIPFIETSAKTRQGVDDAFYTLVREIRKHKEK
KRAS Q61H, sequence (P62937 whole entry): as the sequence (P62937 whole entry) above
Method in brief: as §1

KRAS G12D = KRAS G12D (Homo sapiens, UniProt P01116+P62937, G12D); assay: as above; format: biochemical
KRAS G12D, sequence (P01116 1-169 isoform P01116-2 G12D limits assumed): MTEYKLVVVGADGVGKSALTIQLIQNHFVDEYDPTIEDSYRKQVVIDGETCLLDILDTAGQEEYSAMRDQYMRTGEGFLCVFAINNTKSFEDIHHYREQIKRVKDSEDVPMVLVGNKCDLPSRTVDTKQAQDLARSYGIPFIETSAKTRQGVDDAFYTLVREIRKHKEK
KRAS G12D, sequence (P62937 whole entry): as the sequence (P62937 whole entry) above
Method in brief: (§2)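 Here, compound titrations (ten points, factor 3, from 30 μM final) act on nucleotide-bound K-Ras and Cyclophilin A, and ternary complex formation disrupts the RAF RBD interaction.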

KRAS G12S = KRAS G12S (Homo sapiens, UniProt P01116+P62937, G12S); assay: as above; format: biochemical
KRAS G12S, sequence (P01116 1-169 isoform P01116-2 G12S limits assumed): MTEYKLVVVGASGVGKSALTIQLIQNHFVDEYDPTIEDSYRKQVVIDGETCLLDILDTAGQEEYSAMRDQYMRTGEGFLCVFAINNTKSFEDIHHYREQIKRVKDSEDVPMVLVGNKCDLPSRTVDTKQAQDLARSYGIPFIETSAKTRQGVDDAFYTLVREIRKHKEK
KRAS G12S, sequence (P62937 whole entry): as the sequence (P62937 whole entry) above
Method in brief: as §2

NRAS G12C = NRAS G12C (Homo sapiens, UniProt P01111+P62937, G12C); assay: as above; format: biochemical
NRAS G12C, sequence (P01111 whole entry G12C): as the sequence (P01111 whole entry) above, with G12C counted along it
NRAS G12C, sequence (P62937 whole entry): as the sequence (P62937 whole entry) above

KRAS WT = KRAS WT (Homo sapiens, UniProt P01116+P62937); assay: as above; format: biochemical
KRAS WT, sequence (P01116 1-169 isoform P01116-2 limits assumed): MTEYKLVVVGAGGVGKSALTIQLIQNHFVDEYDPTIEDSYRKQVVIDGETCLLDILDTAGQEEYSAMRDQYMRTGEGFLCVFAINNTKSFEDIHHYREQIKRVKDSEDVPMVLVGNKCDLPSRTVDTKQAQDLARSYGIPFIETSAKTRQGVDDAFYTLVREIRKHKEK
KRAS WT, sequence (P62937 whole entry): as the sequence (P62937 whole entry) above
Method in brief: as §2

KRAS G12C = KRAS G12C (Homo sapiens, UniProt P01116+P62937, G12C); assay: as above; format: biochemical
KRAS G12C, sequence (P01116 1-169 isoform P01116-2 G12C): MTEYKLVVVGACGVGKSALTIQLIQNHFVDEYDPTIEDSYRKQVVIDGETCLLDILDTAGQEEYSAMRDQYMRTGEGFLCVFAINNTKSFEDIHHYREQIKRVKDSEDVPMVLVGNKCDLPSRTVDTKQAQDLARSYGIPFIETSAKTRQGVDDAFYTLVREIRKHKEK
KRAS G12C, sequence (P62937 whole entry): as the sequence (P62937 whole entry) above
Method in brief: as §2

KRAS G12V = KRAS G12V (Homo sapiens, UniProt P01116+P62937, G12V); assay: as above; format: biochemical
KRAS G12V, sequence (P01116 1-169 isoform P01116-2 G12V limits assumed): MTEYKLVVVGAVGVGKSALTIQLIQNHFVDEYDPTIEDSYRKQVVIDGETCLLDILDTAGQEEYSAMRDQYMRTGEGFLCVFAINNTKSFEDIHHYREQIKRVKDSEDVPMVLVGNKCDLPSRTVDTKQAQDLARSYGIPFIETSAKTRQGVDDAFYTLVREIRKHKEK
KRAS G12V, sequence (P62937 whole entry): as the sequence (P62937 whole entry) above
Method in brief: as §2

KRAS G13C = KRAS G13C (Homo sapiens, UniProt P01116+P62937, G13C); assay: as above; format: biochemical
KRAS G13C, sequence (P01116 1-169 isoform P01116-2 G13C): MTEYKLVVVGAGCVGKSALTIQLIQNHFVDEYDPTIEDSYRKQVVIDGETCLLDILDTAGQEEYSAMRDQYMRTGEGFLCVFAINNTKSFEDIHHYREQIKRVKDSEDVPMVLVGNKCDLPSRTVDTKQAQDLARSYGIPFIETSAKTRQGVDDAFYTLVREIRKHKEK
KRAS G13C, sequence (P62937 whole entry): as the sequence (P62937 whole entry) above
Method in brief: as §2

KRAS G13D = KRAS G13D (Homo sapiens, UniProt P01116+P62937, G13D); assay: as above; format: biochemical
KRAS G13D, sequence (P01116 1-169 isoform P01116-2 G13D limits assumed): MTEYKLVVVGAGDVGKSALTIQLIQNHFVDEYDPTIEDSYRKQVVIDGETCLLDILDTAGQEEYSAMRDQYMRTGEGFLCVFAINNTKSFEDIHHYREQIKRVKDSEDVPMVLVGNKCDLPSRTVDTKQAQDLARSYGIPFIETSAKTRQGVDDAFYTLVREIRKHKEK
KRAS G13D, sequence (P62937 whole entry): as the sequence (P62937 whole entry) above
Method in brief: as §2

NCI-H358 (K-Ras G12C) = assay: CellTiter-Glo cell viability assay, 5-day treatment; format: cell-based; conditions: Homo sapiens, NCI-H358, 120 h, 5-day treatment; read-out: H358 Cell Viability assay data (K-Ras G12C, IC50)
Method in brief: (§3)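 Compounds were dispensed directly onto seeded cells and incubated for 5 days, then plates were equilibrated to room temperature for about 30 minutes before luminescence reading. Signals were expressed as percent of the mean DMSO control and fitted with a four-parameter logistic curve.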

Capan-1 (K-Ras G12V) = assay: as above; format: cell-based; conditions: Homo sapiens, CAPAN-1, 120 h, 5-day treatment; read-out: Capan-1 Cell Viability assay data (K-Ras G12V, IC50)
Method in brief: as §3

[1] = NRAS Q61R, read-out: NRAS Q61R FRET data IC50
[2] = NRAS WT, read-out: NRAS WT FRET data IC50
[3] = NRAS Q61K, read-out: NRAS Q61K FRET data IC50
[4] = KRAS Q61H, read-out: KRAS Q61H FRET data IC50
[5] = read-out: KRAS G12D FRET data, IC50
[6] = read-out: KRAS G12S FRET data, IC50
[7] = NRAS G12C, read-out: NRAS G12C FRET data IC50
[8] = KRAS WT, read-out: KRAS WT FRET data IC50
[9] = read-out: KRAS G12C FRET data, IC50
[10] = KRAS G12V, read-out: KRAS G12V FRET data IC50
[11] = read-out: KRAS G13C FRET data, IC50
[12] = KRAS G13D, read-out: KRAS G13D FRET data IC50
[13] = NRAS Q61R FRET data IC50, NRAS Q61R
[14] = NRAS WT FRET data IC50, NRAS WT
[15] = NRAS Q61K FRET data IC50, NRAS Q61K
[16] = KRAS Q61H FRET data IC50, KRAS Q61H
[17] = NRAS G12C FRET data IC50, NRAS G12C
[18] = KRAS WT FRET data IC50, KRAS WT
[19] = KRAS G12V FRET data IC50, KRAS G12V
[20] = KRAS G13D FRET data IC50, KRAS G13D

Measured: IC50

NRAS Q61R, sequence (P01111 whole entry Q61R): as the sequence (P01111 whole entry) above, with Q61R counted along it
NRAS Q61R, sequence (P62937 whole entry): as the sequence (P62937 whole entry) above

CCn1c(-c2cccnc2[C@H](C)OC)c2c3cc(ccc31)-c1csc(n1)C[C@H](NC(=O)[C@H](C(C)C)N(C)C(=O)N1CC[C@@]3(CCN(C)C3=O)C1)C(=O)N1CCC[C@H](N1)C(=O)OCC(C)(C)C2 (single isomer, unassigned) [Example A495]
1000 to 10000 nM: KRAS G12D; [5] | KRAS G13D; [12]
100 to 1000 nM: NRAS Q61R; [1] | NRAS WT; [2] | NRAS Q61K; [3] | KRAS Q61H; [4] | KRAS G12S; [6] | NRAS G12C; [7] | KRAS WT; [8] | KRAS G12C; [9] | KRAS G12V; [10] | KRAS G13C; [11] | Capan-1 (K-Ras G12V)
10 to 100 nM: NCI-H358 (K-Ras G12C)

CCn1c(-c2cnccc2COC)c2c3cc(ccc31)-c1cc(O)cc(c1)C[C@H](NC(=O)[C@H](C(C)C)N(C)C(=O)[C@H]1CCN(S(C)(=O)=O)C1)C(=O)N1CCC[C@H](N1)C(=O)OCC(C)(C)C2 [Example A24, (2S)—N-[(8S,14S)-22-ethyl-4-hydroxy-21-[4-(methoxymethyl)pyridin-3-yl]-18,18-dimethyl-9,15-dioxo-16-oxa-10,22,28-triazapentacyclo[18.5.2.1^2,6.1^10,14.0^23,27]nonacosa-1(26),2,4,6(29),20,23(27),24-heptaen-8-yl]-2-{1-[(3S)-1-methanesulfonylpyrrolidin-3-yl]-N-methylformamido}-3-methylbutanamide]
1000 to 10000 nM: KRAS G12D; KRAS G12D FRET data, IC50 | NCI-H358 (K-Ras G12C) | Capan-1 (K-Ras G12V)
100 to 1000 nM: NRAS Q61R; [13] | NRAS WT; [14] | NRAS Q61K; [15] | KRAS G12S; KRAS G12S FRET data, IC50 | NRAS G12C; [17] | KRAS WT; [18] | KRAS G12C; KRAS G12C FRET data, IC50 | KRAS G12V; [19] | KRAS G13C; KRAS G13C FRET data, IC50 | KRAS G13D; [20]
10 to 100 nM: KRAS Q61H; [16]

CCn1c(-c2cccnc2[C@H](C)OC)c2c3cc(ccc31)-c1csc(n1)C[C@H](NC(=O)[C@H](C(C)C)N(C)C(=O)[C@H]1CCN(C(=O)CNC)C1)C(=O)N1CCC[C@H](N1)C(=O)OCC(C)(C)C2 [Example A99]
100 to 1000 nM: NRAS WT; [2] | KRAS Q61H; [4] | KRAS G12D; [5] | NRAS G12C; [7] | KRAS WT; [8] | KRAS G12C; [9] | KRAS G13C; [11]
1000 to 10000 nM: NRAS Q61R; [1] | NRAS Q61K; [3] | KRAS G12S; [6] | KRAS G12V; [10] | KRAS G13D; [12]
> 10000 nM: NCI-H358 (K-Ras G12C) | Capan-1 (K-Ras G12V)

CCn1c(-c2cnccc2COC)c2c3cc(ccc31)-c1cc(O)cc(c1)C[C@H](NC(=O)[C@H](C(C)C)N1COCC1=O)C(=O)N1CCC[C@H](N1)C(=O)OCC(C)(C)C2 [Example A102]
10 to 100 nM: KRAS Q61H; [4] | KRAS G13C; [11]
1000 to 10000 nM: NCI-H358 (K-Ras G12C)
100 to 1000 nM: NRAS Q61R; [1] | NRAS WT; [2] | NRAS Q61K; [3] | KRAS G12D; [5] | KRAS G12S; [6] | NRAS G12C; [7] | KRAS WT; [8] | KRAS G12C; [9] | KRAS G12V; [10] | KRAS G13D; [12] | Capan-1 (K-Ras G12V)

CCn1c(-c2cccnc2[C@H](C)OC)c2c3cc(ccc31)-c1csc(n1)C[C@H](NC(=O)[C@H](C(C)C)N(C)C(=O)OC)C(=O)N1CCC[C@H](N1)C(=O)OCC(C)(C)C2 [Example A138]
10 to 100 nM: NCI-H358 (K-Ras G12C) | Capan-1 (K-Ras G12V)
1000 to 10000 nM: KRAS G12D; KRAS G12D FRET data, IC50 | KRAS G12S; KRAS G12S FRET data, IC50 | KRAS G13D; [20]
100 to 1000 nM: NRAS Q61R; [13] | NRAS WT; [14] | NRAS Q61K; [15] | KRAS Q61H; [16] | NRAS G12C; [17] | KRAS WT; [18] | KRAS G12C; KRAS G12C FRET data, IC50 | KRAS G12V; [19] | KRAS G13C; KRAS G13C FRET data, IC50

CCn1c(-c2cccnc2[C@H](C)OC)c2c3cc(ccc31)-c1nc(cs1)C[C@H](NC(=O)[C@H](C(C)C)N(C)C(C)=O)C(=O)N1CCC[C@H](N1)C(=O)OCC(C)(C)C2 [Example A152]
100 to 1000 nM: NRAS Q61K; [3] | KRAS Q61H; [4] | NCI-H358 (K-Ras G12C) | Capan-1 (K-Ras G12V)
1000 to 10000 nM: NRAS Q61R; [1] | NRAS WT; [2] | KRAS G12D; [5] | KRAS G12S; [6] | NRAS G12C; [7] | KRAS WT; [8] | KRAS G12C; [9] | KRAS G12V; [10] | KRAS G13C; [11] | KRAS G13D; [12]
